Experimental data as given in patent US20240173432A1, “Compositions and Methods for Treatment of Myotonic Dystrophy Type 1 with CRISPR/SluCas9” (Vertex Pharmaceuticals Incorporated, priority 2021, published 2024).

Columns and labels:
Type in all cases: cell-based, human
[1] = system: CAG foci in primary DM1 patient myoblasts; assay: Single-cut screening: CAG foci staining; conditions: single sgRNA; for % of CAG foci positive nuclei (DNA-PKi): DNA-PKi treated
Procedure, shortened: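 Primary DM1 patient myoblasts were PFA-fixed and hybridized with […] (1 ng/μL, 15 min at 80° C) in 30% formamide/2×SSC, followed by anti-MBNL1 immunostaining and Hoechst counterstain. CAG RNA foci were quantified by high-content confocal imaging after single-cut SuCas9 sgRNA editing.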

[2] = system: CUG foci in primary DM1 patient myoblasts; assay: Single-cut screening: FISH staining of CUG RNA foci; conditions: for frequency of CUG foci free myoblast nuclei (foci number per nucleus=0) / frequency of myoblast nuclei that contain more than three CUG foci: RNA foci distribution analysis (FIG. 6A-B); for % of CUG foci free nuclei (DNA-PKi) / % of CUG foci free nuclei (Vehicle): single sgRNA, primary DM1 patient myoblasts; for % of CUG foci free nuclei (DNA-PKi): DNA-PKi treated
Procedure, shortened: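 CD56-purified primary DM1 patient myoblasts nucleofected with SluCas9:sgRNA RNP (30:90 pmol, single-cut), then DMSO or 3 μM DNA-PK inhibitor for 48 h. At 72 h post-nucleofection, cells fixed and stained for CUG foci with Cy3-PNA(CAG)5 probe (1 ng/μL, 80 °C), co-stained for MBNL1 and Hoechst, imaged by high-content confocal microscopy.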

[3] = system: CUG foci in primary DM1 patient myoblasts; assay: Dual-cut screening: FISH staining of CUG RNA foci; conditions: sgRNAs working with partner(s) or alone
Procedure, shortened: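 SluCas9 RNPs (protein:sgRNA 1:3; 20 pmol SluCas9 + 60 pmol sgRNA per guide, paired 1:1) nucleofected into primary DM1 patient myoblasts, then DMSO or 3 μM DNA-PKi Compound 6 for 48 h. At 72 h post-nucleofection cells fixed, FISH-stained with Cy3-PNA(CAG)5 probe plus anti-MBNL1 and Hoechst; % CUG foci-free nuclei by high-content confocal imaging.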

Substance	% of CAG foci positive nuclei (DNA-PKi) [1] [%]	% of CAG foci positive nuclei (Vehicle) [1] [%]	frequency of CUG foci free myoblast nuclei (foci number per nucleus=0) [2]	frequency of myoblast nuclei that contain more than three CUG foci [2]	% of CUG foci free nuclei (DNA-PKi) [2] [%]	% of CUG foci free nuclei (Vehicle) [2] [%]	percentage of CUG foci free nuclei ([2]; single-cut, DNA-PKi treatment (3 μM Compound 6, 48 hrs)) [%]	RNA foci reduction efficiency [3]
ATGGGCAAACTGCAGGCCTGGG (listed as DNA, chemistry not fully specified) [SluD14]	3.96	6.7	increased the frequency	reduced the frequency	81.82	53.12	81.82	exceptionally high RNA foci reduction efficiency
GCCCCGTTGGAAGACTGAGTGC (listed as DNA, chemistry not fully specified) [SluU08]	1.61	2.21	–	–	61.56	31.42	–	exceptionally high RNA foci reduction efficiency
ggggcTCGAAGGGTCCTTGTAG (as printed in the source, key not given here) [SluU63]	5.49	3.29	increased the frequency	reduced the frequency	70.99	44.78	–	exceptionally high RNA foci reduction efficiency
gggcTCGAAGGGTCCTTGTAGC (as printed in the source, key not given here) [SluU64]	2.58	1.23	–	–	67.39	37.58	–	exceptionally high RNA foci reduction efficiency
